Read-outs that look alike come from different tables or passages of the source.
Target: T1, His6-PDK1 (aa 52-556) (Homo sapiens, UniProt O15530)
T1 construct: 15 μL His6-PDK1 (aa 52-556) 3.33 ng/well); host or cells: baculovirus-infected insect cells
T1 sequence (O15530 52-556): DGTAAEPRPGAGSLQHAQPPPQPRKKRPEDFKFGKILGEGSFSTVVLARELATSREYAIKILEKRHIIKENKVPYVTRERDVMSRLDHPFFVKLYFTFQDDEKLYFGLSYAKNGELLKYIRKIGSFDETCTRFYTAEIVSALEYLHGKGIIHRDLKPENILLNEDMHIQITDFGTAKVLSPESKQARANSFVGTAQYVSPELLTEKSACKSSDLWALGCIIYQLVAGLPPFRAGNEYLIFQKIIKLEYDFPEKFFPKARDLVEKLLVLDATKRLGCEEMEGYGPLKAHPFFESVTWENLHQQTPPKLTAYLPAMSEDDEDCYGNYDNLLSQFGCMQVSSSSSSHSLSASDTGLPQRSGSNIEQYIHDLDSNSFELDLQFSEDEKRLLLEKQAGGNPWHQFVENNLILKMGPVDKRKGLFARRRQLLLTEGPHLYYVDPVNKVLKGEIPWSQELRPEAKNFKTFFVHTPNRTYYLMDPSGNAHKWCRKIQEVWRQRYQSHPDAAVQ
Test: PDK1 kinase assay III (with Tween 20)
Type: biochemical
Details: read-out: % CTL (residual activity of the enzyme relative to DMSO control)
Outline: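 Started with ATP, incubated 90 min at ambient temperature, then stopped with phosphoric acid. Asterisked values come from assay II (24 h or 5 min incubation).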

[1] = compound at 10 μM, PDK1 kinase assay III (values without asterisk)

Q: For `CN(C)Cc1ccc(Nc2ncc3cc(/C=C/CNC(=O)c4ccnn(Cc5ccc(F)c(F)c5)c4=O)ccc3n2)cc1` [IV-51, 2-(3,4-difluorobenzyl)-N-{(2E)-3-[2-({4-[(dimethylamino)methyl]phenyl}-amino)quinazolin-6-yl]prop-2-en-1-yl}-3-oxo-2,3-dihydropyridazine-4-carboxamide], which remaining activity at 10 µM [1] is on record?
A: 14.5%

Q: For `CN1CCC(N(C)c2ccc(Nc3ncc4cc(/C=C/CNC(=O)c5ccnn(Cc6ccc(F)c(F)c6)c5=O)ccc4n3)cc2)CC1` [IV-52, 2-(3,4-difluorobenzyl)-N-{(2E)-3-[2-({4-[methyl(1-methylpiperidin-4-yl)amino]-phenyl}amino)quinazolin-6-yl]prop-2-en-1-yl}-3-oxo-2,3-dihydropyridazine-4-carboxamide], which remaining activity at 10 µM [1] is on record?
A: 17.2%

Q: With `CCOC(=O)c1ccc(Nc2ncc3cc(/C=C/CNC(=O)c4cncn(Cc5ccc(F)c(F)c5)c4=O)ccc3n2)cc1` [IV-53, ethyl-4-({6-[(1E)-3-({[1-(3,4-difluorobenzyl)-6-oxo-1,6-dihydropyrimidin-5-yl]carbonyl}amino)prop-1-en-1-yl]quinazolin-2-yl}amino)benzoate] as the molecule, how does the remaining activity at 10 µM [1] read?
A: 33.4%

Q: How did the remaining activity at 10 µM [1] turn out when `Cc1c(C(=O)NC/C=C/c2ccc3nc(Nc4ccc(N(C)C5CCN(C)CC5)cc4)ncc3c2)c(=O)n(Cc2ccc(F)c(F)c2)n1C` [IV-54, 2-(3,4-difluorobenzyl)-1,5-dimethyl-N-{(2E)-3-[2-({4-[methyl(1-methylpiperidin-4-yl)amino]phenyl}amino)quinazolin-6-yl]prop-2-en-1-yl}-3-oxo-2,3-dihydro-1H-pyrazole-4-carboxamide] was run?
A: 16.6%

Q: Which remaining activity at 10 µM [1] does the source give for `Cc1c(C(=O)NC/C=C/c2ccc3nc(Nc4ccc(NC5CCN(C)CC5)c(F)c4)ncc3c2)c(=O)n(Cc2ccc(F)c(F)c2)n1C` [IV-55, 2-(3,4-difluorobenzyl)-N-{(2E)-3-[2-({3-fluoro-4-[(1-methylpiperidin-4-yl)amino]-phenyl}amino)quinazolin-6-yl]prop-2-en-1-yl}-1,5-dimethyl-3-oxo-2,3-dihydro-1H-pyrazole-4-carboxamide] here?
A: 16.5%

Q: Which remaining activity at 10 µM [1] does the source give for `O=C(NC/C=C/c1ccc2ncncc2c1)c1cncn(Cc2ccc(F)c(F)c2)c1=O` [IV-56, 1-(3,4-difluorobenzyl)-6-oxo-N-[(2E)-3-(quinazolin-6-yl)prop-2-en-1-yl]-1,6-dihydropyrimidine-5-carboxamide] here?
A: 18.8%

Q: How did the remaining activity at 10 µM [1] turn out when `Cc1c(C(=O)NC/C=C/c2ccc3ncncc3c2)c(=O)n(Cc2ccc(F)c(F)c2)n1C` [IV-57, 2-(3,4-difluorobenzyl)-1,5-dimethyl-3-oxo-N-[(2E)-3-(quinazolin-6-yl)prop-2-en-1-yl]-2,3-dihydro-1H-pyrazole-4-carboxamide] was run?
A: 35.5%

Q: `Cc1c(C(=O)NCC#Cc2cc3cnc(Nc4ccc(N5CCOCC5)cc4)nc3n(C(C)C)c2=O)c(=O)n(Cc2ccc(F)c(F)c2)n1C` [IV-58, 2-(3,4-difluorobenzyl)-1,5-dimethyl-N-{3-[2-{[4-(morpholin-4-yl)phenyl]amino}-7-oxo-8-(propane-2-yl)-7,8-dihydropyrido[2,3-c]pyrimidin-6-yl]prop-2-yn-1-yl}-3-oxo-2,3-dihydro-1H-pyrazole-4-carboxamide] was tested. Which remaining activity at 10 µM [1] did it give?
A: 14.6%

Q: Which remaining activity at 10 µM [1] does the source give for `CC(C)n1c(=O)c(C#CCNC(=O)c2cncn(Cc3ccc(F)c(F)c3)c2=O)cc2cnc(Nc3ccc(N4CCOCC4)cc3)nc21` [IV-59, 1-(3,4-difluorobenzyl)-N-{3-[2-{[4-(morpholin-4-yl)phenyl]amino}-7-oxo-8-(propane-2-yl)-7,8-dihydropyrido[2,3-c]pyrimidin-6-yl]prop-2-yn-1-yl}-6-oxo-1,6-dihydropyrimidine-5-carboxamide] here?
A: 12.9%

Q: With `Cc1c(C#CCNC(=O)c2c(C)n(C)n(Cc3ccc(F)c(F)c3)c2=O)c(=O)n(CCN)c2nc(Nc3ccc(N4CCOCC4)cc3)ncc12` [IV-60, N-{3-[8-(2-aminoethyl)-5-methyl-2-{[4-(morpholin-4-yl)phenyl]amino}-7-oxo-7,8-dihydropyrido[2,3-d]pyrimidin-6-yl]prop-2-yn-1-yl}-2-(3,4-difluorobenzyl)-1,5-dimethyl-3-oxo-2,3-dihydro-1H-pyrazole-4-carboxamide] as the molecule, how does the remaining activity at 10 µM [1] read?
A: 13.3%

Q: Which remaining activity at 10 µM [1] does the source give for `CN(C)Cc1ccc(Nc2ncc3cc(/C=C/CNC(=O)c4nc(Cl)cn(Cc5ccc(F)c(F)c5)c4=O)ccc3n2)cc1` [IV-61, 6-chloro-4-(3,4-difluorobenzyl)-N-{(2E)-3-[2-({4-[(dimethylamino)methyl]phenyl}amino)quinazolin-6-yl]prop-2-en-1-yl}-3-oxo-3,4-dihydropyrazine-2-carboxamide] here?
A: 13.9%

Q: Which remaining activity at 10 µM [1] does the source give for `O=C(NC/C=C/c1ccc2nc(Nc3ccccc3)ncc2c1)c1cncn(Cc2ccc(F)c(F)c2)c1=O` [IV-62] here?
A: 19.1%

Q: `CC(C)Nc1ncc2cc(/C=C/CNC(=O)c3cccn(Cc4ccc(F)c(F)c4)c3=O)ccc2n1` [IV-91] was tested. Which remaining activity at 10 µM [1] did it give?
A: 26.1%

Q: How did the remaining activity at 10 µM turn out when `Cc1c(C(=O)NC/C=C/c2ccc3nc(NC(C)C)ncc3c2)c(=O)n(Cc2ccc(F)c(F)c2)n1C` [IV-92] was run?
A: 21.6%
